In patent publication US20200200775A1, “OXIDIZED LIPIDS AS BIOMARKERS FOR NEUROPATHIC PAIN” (Fraunhofer-Gesellschaft zur Förderung der angewandten …, priority 2017, published 2020):

Assays:
[1] = LC-MS/MS lipid profiling in mouse models of chemotherapy-induced peripheral neuropathic pain; details: for concentrations of 9,10-EpOME: various pain relevant tissues and plasma following paclitaxel (6 mg/kg i.p.) or oxaliplatin (3 mg/kg i.p.) treatment, measurable as early as 24 hours after injection; for concentrations of 9-HODE / concentrations of 13-HODE: various pain relevant tissues and plasma following paclitaxel or oxaliplatin treatment
Procedure: For all behavioral experiments, only 6-12 weeks old male C57BL/6N mice were used and purchased from commercial breeding companies (Charles River, Sulzfeld, Germany, Janvier, Le Geneset-Saint-Isle, FR). To compare mechanical thresholds, age and sex matched littermates were used as control.
Paclitaxel was dissolved in Cremophor EL/Ethanol 1:1 and diluted in saline. The dose for intraperitoneal injection was set to 6 mg/kg as described previously [4]. Oxaliplatin was dissolved in saline. The dose for intraperitoneal injection was set to 3 mg/kg as described previously [5].
For the measurement of epoxy lipids and HETEs stock solutions of the analytes 9,10-EpOME, 9-HODE, 13-HODE, 12-HETE and 15-HETE and internal standards 9,10-EpOME-d4, 9-HODE-d4, 13-HODE-d4, 12-HETE-d4 and 15-HETE-d4 are generated with concentrations of 2500 ng/ml in ethanol. Working standards were obtained by further dilution with a concentration range of 0.1-250 ng/ml for all analytes.
For prostanoids, stock solutions with 50,000 ng/ml of all analytes (6-keto-PGF1α) and internal standards (6-keto-PGF1α-d4) were prepared in methanol.
Lipids are extracted twice with 600 μl of ethyl acetate using liquid-liquid extraction. The combined organic phases were removed at a temperature of 45° C. under a gentle stream of nitrogen. The residues were reconstituted with 50 μl of methanol/water/butylated hydroxytoluene (BHT) (50:50:10^−3, v/v/v) (EpOMEs, HODEs and HETEs), or 50 μl of acetonitrile/water/formic acid (20:80:0.0025, v/v/v) (6-keto-PGF1α) and then centrifuged for 2 min at 10,000 g, and transferred to glass vials waiting for analysis.
The LC-MS/MS system consists of a QTrap 5500 (AB Sciex, Darmstadt, Germany) equipped with a Turbo-V source operating in negative electrospray ionization mode, an Agilent 1200 binary HPLC pump and degasser (Agilent, Waldbronn, Germany), and an HTC Pal autosampler (CTC analytics, Zwingen, Switzerland). High-purity nitrogen for the mass spectrometer was produced by a NGM 22-LC-MS nitrogen generator (cmc Instruments, Eschborn, Germany).
For the chromatographic separation of EpOMEs, HODEs and HETEs, a Gemini NX C18 column and precolumn were used (150×2 mm inner diameter, 5 μm particle size, and 110 Å pore size; Phenomenex, Aschaffenburg, Germany). For the chromatographic separation of prostanoids, a Synergi 4 u Hydro-RP column (150×2 mm inner diameter, 4 μm, Phenomenex, Aschaffenburg, Germany) and a precolumn of same material were used.
Mobile phase A consist of water: ammonia (100:0.05, v/v), and mobile phase B of acetonitrile ammonia (100:0.05, v/v). The gradient changed from 85% A to 10% within 12 min. These conditions were held for 1 min.
For the chromatographic separation of prostanoids, a Synergi 4 u Hydro-RP column (150×2 mm inner diameter, 4 μm, Phenomenex, Aschaffenburg, Germany) and a precolumn of same material were used.

[2] = Plasma concentrations of 9,10-EpOME and 9,10-DiHOME after paclitaxel treatment, with telmisartan administration; assay type: in vivo, mice; details: 8 d after paclitaxel-treatment (6 mg/kg); telmisartan 10 mg/kg, 2 h
Procedure: FIG. 4: Plasma-concentrations of 9,10-EpoME and its Metabolite 9,10-DiHOME 8d after paclitaxel-treatment (6 mg/kg) can be reduced by administration of telmisartan (10 mg/kg, 2h). Data are shown as mean±SEM from five mice per group; one-way ANOVA, *p<0.05.
Oxaliplatin was dissolved in saline.
These conditions were held for 1 min.
Ratios of analyte peak area and internal standard area.

[3] = pain relevant tissues, FIG. 2: 8 d after i.p. paclitaxel (6 mg/kg)

| concentrations of 12-HETE [1, 3] | concentrations of 15-HETE [1, 3] | concentrations of 6-keto-Prostaglandin-F1α ([1]; pain relevant tissues, FIG. 2: 8 d after multiple i.p. paclitaxel (4×2 mg/kg, every other day)) | SMILES | concentrations of 9,10-EpOME [1] | concentrations of 9-HODE [1] | concentrations of 13-HODE [1] | Plasma-concentrations of 9,10-DiHOME [2] | Plasma-concentrations of 9,10-EpOME [2] |
| --- | --- | --- | --- | --- | --- | --- | --- | --- |
|  |  |  | O=C1[O][Pt]2([NH][C@@H]3CCCC[C@H]3[NH]2)[O]C1=O [oxaliplatin] | elevated | elevated | elevated |  |  |
| decreased | decreased | decreased | CC(=O)O[C@H]1C(=O)[C@@]2(C)[C@H]([C@H](OC(=O)c3ccccc3)[C@]3(O)C[C@H](OC(=O)[C@H](O)[C@@H](NC(=O)c4ccccc4)c4ccccc4)C(C)=C1C3(C)C)[C@]1(OC(C)=O)CO[C@@H]1C[C@@H]2O [paclitaxel] | elevated | elevated | elevated |  |  |
|  |  |  | CCCc1nc2c(C)cc(-c3nc4ccccc4n3C)cc2n1Cc1ccc(-c2ccccc2C(=O)O)cc1 [telmisartan] |  |  |  | reduced | reduced |
